Reference: patent publication US7652007B2, “Nitrogen-substituted hexahydropyrazino[1,2-A]pyrimidine-4,7-dione derivatives, processes for their preparation and their use as medicaments” (Sanofi-Aventis Deutschland GmbH, priority 2003, dated 2010)

Tested on: female NMRI mice
Assay: Anorectic effect: cumulative condensed milk consumption of treated compared with control animals
Type: in vivo
Conditions: oral dose 50 mg/kg by gavage, female NMRI mice after withdrawal of food for 24 hours; for Reduction in the cumulative milk consumption as % of the control: compared with vehicle-treated control animals; for cumulative milk consumption of the treated animals: condensed milk offered 30 minutes after administration, consumption determined for 7 hours
Experimental: The anorectic effect was tested on female NMRI mice. After withdrawal of food for 24 hours, the test product was administered by gavage. The animals were housed singly with free access to drinking water and were offered condensed milk 30 minutes after administration of the product. The condensed milk consumption was determined every half hour for 7 hours, and the general wellbeing of the animals was observed. The measured milk consumption was compared with the vehicle-treated control animals.

Row | Structure (SMILES) | Reduction in the cumulative milk consumption as % of the control | cumulative milk consumption of the treated animals
1 | CC(C)N1CC2N(C(=O)C(N(C)C)CN2S(=O)(=O)c2ccc(Cl)cc2Cl)C(Cc2ccc(Cl)cc2)C1=O (stereo not shown) [Example 5, 6-(4-Chlorobenzyl)-1-(2,4-dichlorobenzenesulfonyl)-3-dimethylamino-8-isopropylhexahydropyrazino[1,2-a]pyrimidine-4,7-dione] | 31 % of the control | 5/2.4 ml
2 | CC(C)N1CC2N(C(=O)C(NS(C)(=O)=O)CN2S(=O)(=O)c2ccc(Cl)cc2Cl)C(Cc2ccc(Cl)cc2)C1=O (stereo not shown) [Example 9, N-[6-(4-Chlorobenzyl)-1-(2,4-dichlorobenzenesulfonyl)-8-isopropyl-4,7-dioxooctahydropyrazino[1,2-a]pyrimidin-3-yl]methanesulfonamide] | 47 % of the control | 5/2.06 ml
